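Briefly, cells in 96-well plates were exposed to five compound concentrations for 48 h, and endpoints were estimated by linear interpolation. The concentration for 50% growth inhibition is given as GI50. TGI is the concentration that stops growth completely.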
What was measured:
Test in all cases: growth of human tumour cells (NCI), 48 h
[1] = system: HCT-116 colon
[2] = system: A549 NSCLC
[3] = system: CAKI-1 renal
[4] = system: NCI-H460 lung
[5] = system: NCI-H23 lung
[6] = system: HOP-62 NSCLC
[7] = system: NCI-H226 lung
[8] = system: MDA-MB-231 breast
[9] = system: A498 renal
[10] = system: HCC-2998 colon
[11] = system: M14 melanoma
[12] = system: T-47D breast
[13] = system: RXF 393 renal
[14] = system: PC-3 prostate
[15] = system: SK-MEL-5 melanoma
[16] = system: SF-295 CNS
[17] = system: DU-145 prostate
[18] = system: EKVX NSCLC
[19] = system: SF-539 CNS
[20] = system: IGROV1 ovarian
[21] = system: HOP-92 NSCLC
[22] = system: OVCAR-5 ovarian
[23] = system: MOLT-4 leukemia
[24] = system: CCRF-CEM leukemia
[25] = system: SNB-75 CNS
[26] = system: SF-268 CNS
[27] = system: UO-31 renal
[28] = system: SK-OV-3 ovarian
[29] = system: K-562 leukemia
[30] = system: BT-549 breast
[31] = system: NCI/ADR-RES ovarian
[32] = system: OVCAR-4 ovarian
[33] = system: MALME-3M melanoma
[34] = system: UACC-257 melanoma
[35] = system: LOX IMVI melanoma
[36] = system: U251 CNS
[37] = system: 786-0 renal
[38] = system: OVCAR-3 ovarian
[39] = system: OVCAR-8 ovarian
[40] = system: SR leukemia
[41] = system: SW-620 colon
[42] = system: SK-MEL-28 melanoma
[43] = system: KM12 colon
[44] = system: HS 578T breast
[45] = system: SN12C renal
[46] = system: COLO 205 colon
[47] = system: SK-MEL-2 melanoma
[48] = system: SNB-19 CNS
[49] = system: TK-10 renal
[50] = system: HL-60(TB) leukemia
[51] = system: MDA-MB-435
[52] = system: ACHN renal
[53] = system: NCI-H522 lung
[54] = system: RPMI-8226 leukemia
[55] = system: UACC-62 melanoma
[56] = system: HCT-15 colon
[57] = system: HT29 colon
[58] = system: MCF7 breast

## COC1CCC(OC)C(c2nc3sccn3c2/C=N/N=C(N)N)C1 (stereo unspecified)
[1]
  GI50: 4.9 µM
  TGI: 37.7 µM
[2]
  GI50: 47 µM
  TGI: > 100 µM
[3]
  GI50: > 10.5 µM
  TGI: > 82.5 µM
[4]
  GI50: 27.7 µM
  TGI: > 76.5 µM
[5]
  GI50: 3.69 µM
  TGI: > 35.5 µM
[6]
  GI50: 17.2 µM
  TGI: 42.7 µM
[7]
  GI50: 13.6 µM
  TGI: 47.5 µM
[8]
  GI50: 1.68 µM
  TGI: 32.8 µM
[9]
  GI50: 10.9 µM
  TGI: 41.5 µM
[10]
  GI50: 31.1 µM
  TGI: 54.5 µM
[11]
  GI50: 1.96 µM
  TGI: 35.4 µM
[12]
  GI50: 31.9 µM
  TGI: > 65.4 µM
[13]
  GI50: 24.8 µM
  TGI: > 82.9 µM
[14]
  GI50: 25 µM
  TGI: > 65.4 µM
[15]
  GI50: 20.2 µM
  TGI: 54.3 µM
[16]
  GI50: 16.5 µM
  TGI: 34.1 µM
[17]
  GI50: 45.1 µM
  TGI: > 80.2 µM
[18]
  GI50: 34.8 µM
  TGI: > 92.7 µM
[19]
  GI50: 20.4 µM
  TGI: 44 µM
[20]
  GI50: 50 µM
  TGI: > 100 µM
[21]
  GI50: 2.76 µM
  TGI: 30.5 µM
[22]
  GI50: 2.84 µM
  TGI: > 51.7 µM
[23]
  GI50: > 74.6 µM
  TGI: > 100 µM
[24]
  GI50: 24.8 µM
  TGI: > 64.7 µM
[25]
  GI50: 6.44 µM
  TGI: > 77.2 µM
[26]
  GI50: 18.5 µM
  TGI: 45.8 µM
[27]
  GI50: > 67.5 µM
  TGI: > 100 µM
[28]
  GI50: 47.1 µM
  TGI: > 100 µM
[29]
  GI50: 35.4 µM
  TGI: > 63.3 µM
[30]
  GI50: 18.4 µM
  TGI: 42.4 µM
[31]
  GI50: > 100 µM
  TGI: > 100 µM
[32]
  GI50: 43.5 µM
  TGI: > 100 µM
[33]
  GI50: 1.7 µM
  TGI: 23.8 µM
[34]
  GI50: 5.61 µM
  TGI: 44.1 µM
[35]
  GI50: 28.5 µM
  TGI: 67.4 µM
[36]
  GI50: 38.7 µM
  TGI: 73.4 µM
[37]
  GI50: 19.7 µM
  TGI: 47 µM
[38]
  GI50: 7.76 µM
  TGI: 36.3 µM
[39]
  GI50: 22.1 µM
  TGI: 55.6 µM
[40]
  GI50: 0.0201 µM
  TGI: 15 µM
[41]
  GI50: 19.4 µM
  TGI: 53.1 µM
[42]
  GI50: 34.9 µM
  TGI: > 94.4 µM
[43]
  GI50: 16 µM
  TGI: 40.2 µM
[44]
  GI50: 24.6 µM
  TGI: 68.6 µM
[45]
  GI50: 22.4 µM
  TGI: 56.3 µM
[46]
  GI50: 25.3 µM
  TGI: > 63.7 µM
[47]
  GI50: 25.7 µM
  TGI: > 62.4 µM
[48]
  GI50: 33.8 µM
  TGI: > 96.4 µM
[49]
  GI50: > 52.1 µM
  TGI: > 81.4 µM
[50]
  GI50: 1.21 µM
  TGI: > 36.7 µM
[51]
  GI50: 17.2 µM
  TGI: 36 µM
[52]
  GI50: > 100 µM
  TGI: > 100 µM
[53]
  GI50: 30.4 µM
  TGI: > 72.2 µM
[54]
  GI50: 4.18 µM
  TGI: 43.9 µM
[55]
  GI50: 16.6 µM
  TGI: 32.4 µM
[56]
  GI50: > 100 µM
  TGI: > 100 µM
[57]
  GI50: 2.59 µM
  TGI: > 8.71 µM
[58]
  GI50: 20.1 µM
  TGI: 45 µM

Source: PubChem BioAssay (NCI)
